We go through 18 compounds from patent US20260184707A1, “PHARMACEUTICAL COMPOUNDS FOR THE TREATMENT OF COMPLEMENT MEDIATED DISORDERS” (ALEXION PHARMACEUTICALS, INC., priority 2022, published 2026).

For this assay, the target named is T1, Human complement C1s enzyme (Homo sapiens, UniProt P09871).
T1 construct: purified from human serum, Complement Technology, Inc; purchased Complement Technology, Inc; host or cells: human serum (plasma-derived native protein)
T1 sequence (P09871 438-688 limits assumed): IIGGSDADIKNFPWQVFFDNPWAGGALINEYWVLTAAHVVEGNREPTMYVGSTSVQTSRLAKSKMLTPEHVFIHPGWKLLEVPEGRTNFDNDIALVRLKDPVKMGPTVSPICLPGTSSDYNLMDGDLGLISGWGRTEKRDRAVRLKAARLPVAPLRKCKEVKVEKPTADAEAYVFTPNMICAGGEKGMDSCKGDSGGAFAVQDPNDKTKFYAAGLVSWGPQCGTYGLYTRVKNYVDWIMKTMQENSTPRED
T1 sequence (P09871 16-437 partner limits assumed): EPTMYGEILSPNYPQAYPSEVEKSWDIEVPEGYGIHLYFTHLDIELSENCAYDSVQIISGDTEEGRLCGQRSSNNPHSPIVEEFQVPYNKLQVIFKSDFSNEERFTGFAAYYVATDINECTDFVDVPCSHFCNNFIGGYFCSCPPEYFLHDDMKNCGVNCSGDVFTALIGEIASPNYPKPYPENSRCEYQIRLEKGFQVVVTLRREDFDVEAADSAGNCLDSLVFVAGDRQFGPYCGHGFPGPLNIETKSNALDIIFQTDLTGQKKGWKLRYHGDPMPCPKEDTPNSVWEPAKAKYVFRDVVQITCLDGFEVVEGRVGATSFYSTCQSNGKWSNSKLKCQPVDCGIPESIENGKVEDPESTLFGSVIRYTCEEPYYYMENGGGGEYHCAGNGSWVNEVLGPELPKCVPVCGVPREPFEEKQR
Briefly: Human C1s enzyme assay. Conditions: human complement C1s enzyme 1.16 nM, substrate Z-L-Lys-SBzl, A405; read-out: IC50 (Stars). It counts as biochemical. In short, it runs like this:
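Thioesterase activity followed colorimetrically (DTNB, A405, 30-s reads) using 100 μM Z-L-Lys-SBzl substrate. Enzyme, human serum-derived C1s at 1.16 nM final, was incubated with test compound for 5 min, room temperature, pH 7.5 Tris buffer with 1 M NaCl. Rate-versus-concentration data fitted by nonlinear regression for IC50.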

SMILES strings stand for the structures.

Broadly, the IC50 is the concentration at which inhibition is half-maximal. For `C[C@@H](Nc1cnc(-c2ccc(=O)n(C)c2)n(CC(=O)NCc2cc3cnccc3[nH]2)c1=O)c1ccc2oc3ccccc3c2c1` [Compound 290, (R)-N-((1H-pyrrolo[3,2-c]pyr-idin-2-yl)methyl)-2-(5-((1-(dibenzo[b,d]furan-2-yl)ethyl)-amino)-2-(1-methyl-6-oxo-1,6-dihydropyridin-3-yl)-6-oxopyr-imidin-1(6H)-yl)acetamide], the IC50 lay within 100 to 1000 nM.

`C[C@@H](Nc1cnc(C2=CCOCC2)n(CC(=O)NCc2cc3cnccc3[nH]2)c1=O)c1ccc2oc3ccccc3c2c1` [Compound 291, (R)-N-((1H-pyrrolo[3,2-c]pyr-idin-2-yl)methyl)-2-(5-((1-(dibenzo[b,d]furan-2-yl)ethyl)-amino)-2-(3,6-dihydro-2H-pyran-4-yl)-6-oxopyrimidin-1(6H)-yl)acetamide]: the IC50 is less than 100 nM.

As for `Cc1cccc(-c2ncc(N[C@H](C)c3ccc4oc5ccccc5c4c3)c(=O)n2CC(=O)NCc2cc3cnccc3[nH]2)c1` [Compound 292, (R)-N-((1H-pyrrolo[3,2-c]pyr-idin-2-yl)methyl)-2-(5-((1-(dibenzo[b,d]furan-2-yl)ethyl)-amino)-6-oxo-2-(m-tolyl)pyr-imidin-1(6H)-yl)acetamide], the IC50 is less than 100 nM.

Consider `C[C@@H](Nc1cnc(-c2cccc(Cl)c2)n(CC(=O)NCc2cc3cnccc3[nH]2)c1=O)c1ccc2oc3ccccc3c2c1` [Compound 293, (R)-N-((1H-pyrrolo[3,2-c]pyr-idin-2-yl)methyl)-2-(2-(3-chlorophenyl)-5-((1-(dibenzo [b,d]furan-2-yl)ethyl)amino)-6-oxopyrimidin-1(6H)-yl)acet-amide], for which the IC50 was less than 100 nM.

Take `C[C@@H](Nc1cnc(-c2ccccc2)n(CC(=O)N[C@H](C)c2cc3cnccc3[nH]2)c1=O)c1ccc2oc3ccccc3c2c1` [Compound 294, N-((R)-1-(1H-pyrrolo[3,2-c]pyridin-2-yl)ethyl)-2-(5-(((R)-1-(dibenzo[b,d]furan-2-l)ethyl)-amino)-6-oxo-2-phenylpyrimi-din-1(6H)-yl)acetamide]: the IC50 lay in the range of 100 to 1000 nM.

Consider `C[C@H](Nc1cnc(N2CCOCC2)n(CC(=O)NCc2cc3cnccc3[nH]2)c1=O)c1ccc2oc3ccccc3c2c1` [Compound 295, (S)-N-((1H-pyrrolo[3,2-c]pyr-idin-2-yl)methyl)-2-(5-((1-(dibenzo[b,d]furan-2-yl)ethyl)-amino)-2-morpholino-6-oxo-pyrimidin-1(6H)-yl)acetamide], for which the IC50 was less than 100 nM.

With `C[C@H](Nc1cnc(-c2ccc(S(F)(F)(F)(F)F)cc2)n(CC(=O)NCc2cc3cnccc3[nH]2)c1=O)c1ccc2oc3ccccc3c2c1` [Compound 296, (S)-N-((1H-pyrrolo[3,2-c]pyridin-2-yl)methyl)-2-(5-((1-(dibenzo[b,d]furan-2-yl)ethyl)-amino)-6-oxo-2-(4-(penta-fluoro-lambda6-sulfaneyl)-phenyl)pyrimidin-1(6H)-yl)-acetamide], the IC50 was less than 100 nM.

As for `O=C(Cn1c(-c2ccc(S(F)(F)(F)(F)F)cc2)ncc(NCc2ccc3oc4ccccc4c3c2)c1=O)NCc1cc2cnccc2[nH]1` [Compound 297, N-((1H-pyrrolo[3,2-c]pyridin-2-yl)methyl)-2-(5-((dibenzo [b,d]furan-2-ylmethyl)amino)-6-oxo-2-(4-(pentafluoro-lambda6-sulfaneyl)phenyl)pyr-imidin-1(6H)-yl)acetamide], the IC50 is less than 100 nM.

Turning to `O=C(Cn1c(-c2ccc(S(F)(F)(F)(F)F)cc2)ncc(NCc2ccc(-c3ccccc3)cc2)c1=O)NCc1cc2cnccc2[nH]1` [Compound 298, N-((1H-pyrrolo[3,2-c]pyridin-2-yl)methyl)-2-(5-(([1,1′-biphenyl]-4-ylmethyl)amino)-6-oxo-2-(4-(pentafluoro-lambda6-sulfaneyl)phenyl)pyr-imidin-1(6H)-yl)acetamide], the IC50 was less than 100 nM.

As to `C[C@H](Nc1nccn(CC(=O)NCc2cc3cnccc3[nH]2)c1=O)c1ccc2oc3ccccc3c2c1` [Compound 299, (S)—N-((1H-pyrrolo[3,2-c]pyridine-2-yl)methyl)-2-(3-((1-(dibenzo[b,d]furan-2-yl)ethyl)amino)-2-oxopyrazin-1(2H)-yl)acetamide], the IC50 is less than 100 nM.

Turning to `C[C@H](Nc1cnc(N2CCn3c(nnc3C(F)(F)F)C2)n(CC(=O)NCc2cc3cnccc3[nH]2)c1=O)c1ccc2oc3ccccc3c2c1` [Compound 300, (S)—N-((1H-pyrrolo[3,2-c]pyridine-2-yl)methyl)-2-(5-((1-(dibenzo[b,d]furan-2-yl)ethyl)amino)-6-oxo-2-(3-(trifluoromethyl)-5,6-dihydro-[1,2,4]triazolo[4,3-a]pyrazin-7(8H)-yl)pyrimidin-1(6H)-yl)acetamide], the IC50 is less than 100 nM.

With `O=C(Cn1c(N2CCn3c(nnc3C(F)(F)F)C2)ncc(NCCCc2ccccc2)c1=O)NCc1cc2cnccc2[nH]1` [Compound 301, N-((1H-pyrrolo[3,2-c]pyridin-2-yl)methyl)-2-(6-oxo-5-((3-phenylpropyl)amino)-2-(3-(trifluoromethyl)-5,6-dihydro-[1,2,4]triazolo[4,3-a]pyrazin-7(8H)-yl)pyrimidin-1(6H)-yl)-acetamide], the IC50 was less than 100 nM.

For the compound `N#Cc1c(NCCCc2ccccc2)ccc(-c2ccccc2)c1CC(=O)NCc1cc2cnccc2[nH]1` [Compound 302, N-((1H-pyrrolo[3,2-c]pyridine-2-yl)methyl)-2-(3-cyano-4-((3-phenylpropyl)amino)-[1,1′-biphenyl]-2-yl)acetamide], the IC50 is less than 100 nM.

For the compound `O=C(Cn1c(-c2ccccc2)ncc(NCC2CCC(c3ccccc3)CC2)c1=O)NCc1cc2cnccc2[nH]1` (stereo not drawn) [Compound 303, N-((1H-pyrrolo[3,2-c]pyridine-2-yl)methyl)-2-(6-oxo-2-phenyl-5-(((4-phenylcyclohexyl)methyl)amino)pyrimidin-1(6H)-yl)acetamide], the IC50 is less than 100 nM.

Take `C[C@@H]1CN(c2ncc(N[C@H](C)c3ccc4oc5ccccc5c4c3)c(=O)n2CC(=O)NCc2cc3cnccc3[nH]2)CCO1` [Compound 304, N-((1H-pyrrolo[3,2-c]pyridin-2-yl)methyl)-2-(5-(((R)-1-(dibenzo[b,d]furan-2-yl)ethyl)-amino)-2-((R)-2-methylmorph-olino)-6-oxopyrimidin-1(6H)-yl)acetamide]: the IC50 lay within 100 to 1000 nM.

For the compound `C[C@@H]1CN(c2ncc(N[C@H](C)c3ccc4oc5ccccc5c4c3)c(=O)n2CC(=O)NCc2cc3cnccc3[nH]2)C[C@H](C)O1` [Compound 305, N-((1H-pyrrolo[3,2-c]pyridin-2-yl)methyl)-2-(5-(((R)-1-(dibenzo[b,d]furan-2-yl)ethyl)-amino)-2-((2S,6R)-2,6-dimeth-ylmorpholino)-6-oxopyrimidin-1(6H)-yl)acetamide], the half-inhibitory concentration (IC50) is 100 to 1000 nM.

Regarding `C[C@@H](Nc1cnc(N2C3CCC2COC3)n(CC(=O)NCc2cc3cnccc3[nH]2)c1=O)c1ccc2oc3ccccc3c2c1` [Compound 306, N-((1H-pyrrolo[3,2-c]pyridin-2-yl)methyl)-2-(2-(3-oxa-8-azabicyclo[3.2.1]octan-8-yl)-5-(((R)-1-(dibenzo[b,d]furan-2-yl)ethyl)amino)-6-oxopyrimi-din-1(6H)-yl)acetamide], the IC50 was 100 to 1000 nM.

Consider `C[C@@H](Nc1cnc(-c2ccccc2)n(CC(=O)NCc2cc3cnccc3[nH]2)c1=O)c1ccc(-c2ccccc2F)cc1` [Compound 307, (R)-N-((1H-pyrrolo[3,2-c]pyridin-2-yl)methyl)-2-(5-((1-(2′-fluoro-[1,1′-biphenyl]-4-yl)ethyl)amino)-6-oxo-2-phen-ylpyrimidin-1(6H)-yl)acet-amide], for which the IC50 was less than 100 nM.
